From patent EP0099673A2, “Prostaglandin D derivatives, process for their preparation and compositions containing them” (ONO PHARMACEUTICAL CO., LTD., priority 1982, dated 1984)

System: human myelogenous leukemic cells (HL-60)
Test: Test on inhibition of proliferation using human myelogenous leukemic cells (HL-60)
Format: cell-based
Settings: for Percentage Inhibition: HL-60, compound at 5 pg/ml, 4 days at 37 C, relative to control (0.1% ethanol); for Surviving Cell Number: HL-60, start 1 x 10^5 cells/ml, compound at 5 pg/ml, stationary culture at 37 C for 4 days, Trypan Blue staining, control 29.4 x 10^4
Experimental: rest on Inhibition of Proliferation Using Human Myeloqenous Leukemic Cells (HL-60)
The test on the inhibition of proliferation of human myelogenous leukemic cells was conducted by a well-known method. The human myelogenous leukemic cells (HL-60) were added to an RPMI culture solution containing 10% bovine fetal serum, the number of cells in the culture solution was adjusted to 1 x 10^5 cells/ml, a solution in ethanol of the compound under test was added to give a concentration of 5 pg/ml, and the mixture was subjected to stationary culture at 37 C for 4 days. As a control, a culture solution to which 0.1% of ethanol had been added was similarly cultured. After the cultivation, the culture solutions were stained by the Trypan Blue staining method and the surviving cell number was measured to determine the percentage inhibition relative to the control.

Row | Compound | Percentage Inhibition [%] | Surviving Cell Number [cells/ml]
1 | CCCCCC=CC=C1C(=O)C[C@H](O)[C@@H]1CC(=O)CCCCC(=O)OC [(12EZ,14EZ)-(9α)-6,11-Dioxo-9-hydroxyprosta-12,14-dienoic acid methyl ester] | 100 | 0
2 | CCCCCC=CC=C1C(=O)C=C[C@@H]1CC(=O)CCCCC(=O)OC [Methyl (9Z,12EZ,14EZ)-6,11-dioxoprosta-9,12,14-trienoate] | 100 | 0
3 | Methyl (13E)-(9α,15S)-6,11-dioxo-9,15- dihvdroxvprost-13-enoate [6-Keto-PGD1 methyl ester] | 100 | 0
